# Experiments:
# Format in all cases: cell-based
# [1] = molecular target: RAC-gamma serine/threonine-protein kinase (Homo sapiens) (UniProt Q9Y243); experiment: Inhibition of AKT3 in human NCI-H929 cells at 10 uM by mass spectroscopic analysis relative to control
# [2] = molecular target: T1, Aurora kinase C (Homo sapiens) (UniProt Q9UQB9); experiment: Inhibition of AURC in human NCI-H929 cells at 10 uM by mass spectroscopic analysis relative to control
# T1 sequence (whole entry): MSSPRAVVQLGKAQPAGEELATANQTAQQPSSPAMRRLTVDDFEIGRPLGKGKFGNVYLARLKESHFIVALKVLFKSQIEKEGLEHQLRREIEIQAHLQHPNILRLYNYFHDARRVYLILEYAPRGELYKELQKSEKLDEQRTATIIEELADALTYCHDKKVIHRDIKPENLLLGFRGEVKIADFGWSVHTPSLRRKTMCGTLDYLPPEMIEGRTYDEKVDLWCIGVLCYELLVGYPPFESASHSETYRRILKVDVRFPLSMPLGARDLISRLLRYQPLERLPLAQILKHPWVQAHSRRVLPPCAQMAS
# [3] = molecular target: Cyclin-dependent kinase 19 (Homo sapiens) (UniProt Q9BWU1); experiment: Inhibition of CDK11 in human NCI-H929 cells at 10 uM by mass spectroscopic analysis relative to control
# [4] = molecular target: Cyclin-dependent kinase 8 (Homo sapiens) (UniProt P49336); experiment: Inhibition of CDK8 in human NCI-H929 cells at 10 uM by mass spectroscopic analysis relative to control
# [5] = molecular target: T2, NUAK family SNF1-like kinase 1 (Homo sapiens) (UniProt O60285); experiment: Inhibition of NuaK1 in human NCI-H929 cells at 10 uM by mass spectroscopic analysis relative to control
# T2 sequence (whole entry): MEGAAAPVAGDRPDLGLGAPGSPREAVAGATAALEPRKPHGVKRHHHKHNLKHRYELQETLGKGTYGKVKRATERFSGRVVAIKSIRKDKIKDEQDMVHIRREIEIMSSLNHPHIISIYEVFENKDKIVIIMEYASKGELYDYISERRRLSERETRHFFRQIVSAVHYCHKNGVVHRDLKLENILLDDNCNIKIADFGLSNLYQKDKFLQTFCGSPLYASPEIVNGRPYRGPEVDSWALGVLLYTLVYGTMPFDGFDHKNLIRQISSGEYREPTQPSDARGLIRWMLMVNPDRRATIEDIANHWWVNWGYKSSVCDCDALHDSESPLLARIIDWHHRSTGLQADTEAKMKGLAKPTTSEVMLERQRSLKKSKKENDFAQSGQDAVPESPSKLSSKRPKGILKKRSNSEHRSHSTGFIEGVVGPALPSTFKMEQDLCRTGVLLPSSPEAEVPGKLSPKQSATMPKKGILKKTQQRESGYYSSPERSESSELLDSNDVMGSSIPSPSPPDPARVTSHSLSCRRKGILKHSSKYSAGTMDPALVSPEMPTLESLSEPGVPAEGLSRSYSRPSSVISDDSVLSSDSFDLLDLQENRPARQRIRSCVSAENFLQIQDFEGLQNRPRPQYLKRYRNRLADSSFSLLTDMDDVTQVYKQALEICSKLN
# [6] = molecular target: Cyclin-dependent kinase 11B (Homo sapiens) (UniProt P21127); experiment: Inhibition of PITSLRE in human NCI-H929 cells at 10 uM by mass spectroscopic analysis relative to control
# [7] = molecular target: Bone morphogenetic protein receptor type-1B (Homo sapiens) (UniProt O00238); experiment: Inhibition of BMPR1B in human NCI-H929 cells at 10 uM by mass spectroscopic analysis relative to control
# [8] = molecular target: Microtubule-associated serine/threonine-protein kinase 2 (Homo sapiens) (UniProt Q6P0Q8); experiment: Inhibition of MAST2 in human NCI-H929 cells at 10 uM by mass spectroscopic analysis relative to control
# [9] = molecular target: T3, Tyrosine-protein kinase Mer (Homo sapiens) (UniProt Q12866); experiment: Inhibition of MER in human NCI-H929 cells at 10 uM by mass spectroscopic analysis relative to control
# T3 sequence (whole entry): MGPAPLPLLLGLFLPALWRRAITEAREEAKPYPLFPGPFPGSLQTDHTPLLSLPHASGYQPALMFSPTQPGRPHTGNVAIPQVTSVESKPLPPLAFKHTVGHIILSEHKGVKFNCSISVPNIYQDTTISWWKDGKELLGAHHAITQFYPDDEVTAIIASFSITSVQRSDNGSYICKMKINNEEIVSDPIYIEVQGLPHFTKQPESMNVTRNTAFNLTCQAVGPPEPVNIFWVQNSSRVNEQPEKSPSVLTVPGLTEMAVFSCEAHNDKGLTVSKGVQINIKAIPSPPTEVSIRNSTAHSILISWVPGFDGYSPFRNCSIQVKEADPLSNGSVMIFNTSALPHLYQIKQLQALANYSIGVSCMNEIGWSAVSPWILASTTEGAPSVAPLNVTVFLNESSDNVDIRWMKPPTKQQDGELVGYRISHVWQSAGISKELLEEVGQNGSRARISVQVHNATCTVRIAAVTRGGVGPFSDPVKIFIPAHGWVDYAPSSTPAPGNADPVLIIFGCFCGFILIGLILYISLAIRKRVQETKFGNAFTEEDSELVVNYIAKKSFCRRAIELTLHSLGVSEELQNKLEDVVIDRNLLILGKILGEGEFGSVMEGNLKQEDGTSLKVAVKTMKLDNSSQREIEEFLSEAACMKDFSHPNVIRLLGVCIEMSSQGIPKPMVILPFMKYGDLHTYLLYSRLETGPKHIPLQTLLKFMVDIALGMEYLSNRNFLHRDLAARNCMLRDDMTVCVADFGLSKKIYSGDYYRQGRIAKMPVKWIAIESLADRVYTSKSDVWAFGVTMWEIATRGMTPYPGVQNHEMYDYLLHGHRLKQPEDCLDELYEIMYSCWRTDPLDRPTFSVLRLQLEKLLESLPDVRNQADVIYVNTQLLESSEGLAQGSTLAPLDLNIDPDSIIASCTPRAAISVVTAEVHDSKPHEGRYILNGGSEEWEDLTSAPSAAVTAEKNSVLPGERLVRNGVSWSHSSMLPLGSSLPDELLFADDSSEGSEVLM
# [10] = molecular target: Cyclin-dependent kinase 17 (Homo sapiens) (UniProt Q00537); experiment: Inhibition of PCTAIRE2 in human NCI-H929 cells at 10 uM by mass spectroscopic analysis relative to control
# Chain of Cyclin-dependent kinase 17 (Homo sapiens) (Q00537 whole entry, looked up): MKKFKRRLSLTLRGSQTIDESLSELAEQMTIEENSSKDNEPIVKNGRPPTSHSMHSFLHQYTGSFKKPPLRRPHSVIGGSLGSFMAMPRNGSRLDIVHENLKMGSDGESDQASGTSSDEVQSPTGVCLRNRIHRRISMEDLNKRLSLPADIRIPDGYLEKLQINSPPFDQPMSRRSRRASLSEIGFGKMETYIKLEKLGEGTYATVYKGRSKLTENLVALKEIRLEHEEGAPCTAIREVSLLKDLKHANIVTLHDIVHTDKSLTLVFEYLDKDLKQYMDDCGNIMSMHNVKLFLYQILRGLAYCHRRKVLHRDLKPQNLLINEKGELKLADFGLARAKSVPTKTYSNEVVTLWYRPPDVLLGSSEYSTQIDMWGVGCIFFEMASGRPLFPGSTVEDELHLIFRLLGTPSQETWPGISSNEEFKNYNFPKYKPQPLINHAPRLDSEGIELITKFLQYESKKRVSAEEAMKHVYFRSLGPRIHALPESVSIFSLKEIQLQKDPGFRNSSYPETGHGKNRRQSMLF
# Chain of Cyclin-dependent kinase 11B (Homo sapiens) (P21127 whole entry): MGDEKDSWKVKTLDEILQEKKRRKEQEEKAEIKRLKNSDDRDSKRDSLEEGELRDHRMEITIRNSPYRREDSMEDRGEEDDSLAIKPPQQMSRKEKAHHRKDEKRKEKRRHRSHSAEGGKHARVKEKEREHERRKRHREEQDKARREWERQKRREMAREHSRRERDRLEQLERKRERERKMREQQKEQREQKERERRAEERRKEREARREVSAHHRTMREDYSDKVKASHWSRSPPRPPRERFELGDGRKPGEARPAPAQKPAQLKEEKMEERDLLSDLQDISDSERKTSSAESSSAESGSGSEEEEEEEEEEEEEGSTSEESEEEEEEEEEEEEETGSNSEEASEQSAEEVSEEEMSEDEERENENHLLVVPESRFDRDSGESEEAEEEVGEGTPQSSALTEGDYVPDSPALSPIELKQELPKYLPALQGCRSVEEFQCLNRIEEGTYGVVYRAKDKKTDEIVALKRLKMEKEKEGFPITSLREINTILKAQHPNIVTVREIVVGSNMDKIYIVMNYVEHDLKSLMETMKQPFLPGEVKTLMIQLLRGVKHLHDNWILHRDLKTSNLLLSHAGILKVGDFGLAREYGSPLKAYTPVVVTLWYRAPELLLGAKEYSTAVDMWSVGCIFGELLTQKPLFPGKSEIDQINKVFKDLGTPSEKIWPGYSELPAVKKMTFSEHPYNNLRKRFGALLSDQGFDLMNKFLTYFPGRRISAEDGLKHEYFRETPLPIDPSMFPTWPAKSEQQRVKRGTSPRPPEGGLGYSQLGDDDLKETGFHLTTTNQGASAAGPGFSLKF
# Chain of Microtubule-associated serine/threonine-protein kinase 2 (Homo sapiens) (Q6P0Q8 whole entry): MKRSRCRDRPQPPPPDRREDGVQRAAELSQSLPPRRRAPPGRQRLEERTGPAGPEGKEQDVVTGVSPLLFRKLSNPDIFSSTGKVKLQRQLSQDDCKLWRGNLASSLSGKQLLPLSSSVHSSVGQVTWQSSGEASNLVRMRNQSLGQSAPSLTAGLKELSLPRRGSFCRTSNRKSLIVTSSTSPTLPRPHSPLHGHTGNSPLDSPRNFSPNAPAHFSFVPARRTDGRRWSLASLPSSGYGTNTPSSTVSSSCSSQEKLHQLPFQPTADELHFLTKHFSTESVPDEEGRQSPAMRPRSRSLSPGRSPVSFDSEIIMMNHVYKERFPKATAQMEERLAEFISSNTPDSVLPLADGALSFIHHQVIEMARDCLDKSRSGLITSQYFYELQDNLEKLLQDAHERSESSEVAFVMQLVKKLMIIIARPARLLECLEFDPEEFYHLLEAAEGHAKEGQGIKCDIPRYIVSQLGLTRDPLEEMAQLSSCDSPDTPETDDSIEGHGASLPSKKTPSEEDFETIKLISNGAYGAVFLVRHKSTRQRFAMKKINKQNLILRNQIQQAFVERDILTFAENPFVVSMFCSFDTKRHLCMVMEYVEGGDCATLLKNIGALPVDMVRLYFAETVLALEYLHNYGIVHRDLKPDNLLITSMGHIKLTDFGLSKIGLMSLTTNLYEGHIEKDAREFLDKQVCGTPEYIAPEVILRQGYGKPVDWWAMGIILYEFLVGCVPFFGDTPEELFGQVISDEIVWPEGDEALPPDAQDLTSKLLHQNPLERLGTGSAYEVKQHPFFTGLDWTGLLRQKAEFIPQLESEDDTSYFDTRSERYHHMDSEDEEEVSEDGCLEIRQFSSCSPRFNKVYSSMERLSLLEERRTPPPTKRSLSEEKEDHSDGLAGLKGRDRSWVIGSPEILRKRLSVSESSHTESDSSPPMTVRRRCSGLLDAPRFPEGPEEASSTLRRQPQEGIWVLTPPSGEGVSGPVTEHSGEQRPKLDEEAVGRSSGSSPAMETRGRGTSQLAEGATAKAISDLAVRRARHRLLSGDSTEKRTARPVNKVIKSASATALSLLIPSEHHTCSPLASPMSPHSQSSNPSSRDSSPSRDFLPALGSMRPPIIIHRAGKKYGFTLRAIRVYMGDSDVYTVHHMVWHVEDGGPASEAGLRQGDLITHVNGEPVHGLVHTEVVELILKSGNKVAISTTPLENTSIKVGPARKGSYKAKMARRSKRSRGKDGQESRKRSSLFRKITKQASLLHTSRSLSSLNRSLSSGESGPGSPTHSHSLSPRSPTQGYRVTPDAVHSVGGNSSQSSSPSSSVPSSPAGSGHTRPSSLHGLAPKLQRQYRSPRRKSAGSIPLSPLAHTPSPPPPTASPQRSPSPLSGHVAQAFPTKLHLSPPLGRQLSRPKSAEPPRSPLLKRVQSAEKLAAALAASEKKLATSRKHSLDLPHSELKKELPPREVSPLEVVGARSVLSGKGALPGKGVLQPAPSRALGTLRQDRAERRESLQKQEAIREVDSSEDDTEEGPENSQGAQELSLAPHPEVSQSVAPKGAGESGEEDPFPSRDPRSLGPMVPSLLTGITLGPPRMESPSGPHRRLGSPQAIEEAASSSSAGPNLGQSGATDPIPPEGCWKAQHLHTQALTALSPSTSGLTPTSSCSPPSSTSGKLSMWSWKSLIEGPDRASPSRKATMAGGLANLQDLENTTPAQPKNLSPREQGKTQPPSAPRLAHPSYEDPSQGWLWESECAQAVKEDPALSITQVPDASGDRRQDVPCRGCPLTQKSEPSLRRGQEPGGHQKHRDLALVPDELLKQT
# Chain of Cyclin-dependent kinase 8 (Homo sapiens) (P49336 whole entry): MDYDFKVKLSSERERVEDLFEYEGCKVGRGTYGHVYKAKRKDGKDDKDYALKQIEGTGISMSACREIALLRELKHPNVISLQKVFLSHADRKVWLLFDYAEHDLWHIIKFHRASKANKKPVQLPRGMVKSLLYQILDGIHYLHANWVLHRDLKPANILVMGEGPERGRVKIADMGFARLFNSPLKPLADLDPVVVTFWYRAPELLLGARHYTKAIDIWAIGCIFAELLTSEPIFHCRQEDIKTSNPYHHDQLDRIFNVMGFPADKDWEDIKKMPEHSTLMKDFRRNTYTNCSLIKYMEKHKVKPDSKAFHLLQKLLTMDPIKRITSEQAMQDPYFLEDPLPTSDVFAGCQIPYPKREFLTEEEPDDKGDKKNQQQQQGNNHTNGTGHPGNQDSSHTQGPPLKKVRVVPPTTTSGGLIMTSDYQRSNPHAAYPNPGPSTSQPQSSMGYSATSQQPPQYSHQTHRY
# Chain of Cyclin-dependent kinase 19 (Homo sapiens) (Q9BWU1 whole entry): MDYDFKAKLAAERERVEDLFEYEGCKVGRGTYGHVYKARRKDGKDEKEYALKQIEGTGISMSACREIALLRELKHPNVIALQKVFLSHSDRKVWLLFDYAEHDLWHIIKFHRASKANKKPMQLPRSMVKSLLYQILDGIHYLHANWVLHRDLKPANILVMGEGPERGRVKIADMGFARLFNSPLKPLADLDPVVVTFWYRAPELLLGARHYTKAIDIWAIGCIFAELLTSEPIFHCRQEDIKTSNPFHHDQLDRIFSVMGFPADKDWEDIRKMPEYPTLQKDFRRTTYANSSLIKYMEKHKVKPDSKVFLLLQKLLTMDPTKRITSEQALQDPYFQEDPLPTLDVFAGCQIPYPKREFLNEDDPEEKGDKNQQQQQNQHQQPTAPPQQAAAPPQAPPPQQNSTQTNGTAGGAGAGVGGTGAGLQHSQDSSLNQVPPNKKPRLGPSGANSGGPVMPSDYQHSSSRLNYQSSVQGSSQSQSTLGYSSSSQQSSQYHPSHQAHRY
# Chain of Bone morphogenetic protein receptor type-1B (Homo sapiens) (O00238 whole entry): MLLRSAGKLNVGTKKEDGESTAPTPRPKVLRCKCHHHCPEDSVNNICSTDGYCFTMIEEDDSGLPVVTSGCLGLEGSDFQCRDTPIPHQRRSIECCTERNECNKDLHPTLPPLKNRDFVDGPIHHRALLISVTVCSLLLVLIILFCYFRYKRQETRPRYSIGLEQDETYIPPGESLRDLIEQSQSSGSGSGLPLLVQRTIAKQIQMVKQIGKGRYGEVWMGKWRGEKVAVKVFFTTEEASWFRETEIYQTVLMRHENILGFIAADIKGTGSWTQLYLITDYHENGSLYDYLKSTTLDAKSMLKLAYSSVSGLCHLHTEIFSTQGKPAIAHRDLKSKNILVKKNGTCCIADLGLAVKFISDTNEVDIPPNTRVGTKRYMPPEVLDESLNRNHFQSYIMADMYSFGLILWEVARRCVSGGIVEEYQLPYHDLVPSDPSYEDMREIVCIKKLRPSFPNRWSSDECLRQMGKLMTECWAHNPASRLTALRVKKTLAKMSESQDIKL
# Chain of RAC-gamma serine/threonine-protein kinase (Homo sapiens) (Q9Y243 whole entry): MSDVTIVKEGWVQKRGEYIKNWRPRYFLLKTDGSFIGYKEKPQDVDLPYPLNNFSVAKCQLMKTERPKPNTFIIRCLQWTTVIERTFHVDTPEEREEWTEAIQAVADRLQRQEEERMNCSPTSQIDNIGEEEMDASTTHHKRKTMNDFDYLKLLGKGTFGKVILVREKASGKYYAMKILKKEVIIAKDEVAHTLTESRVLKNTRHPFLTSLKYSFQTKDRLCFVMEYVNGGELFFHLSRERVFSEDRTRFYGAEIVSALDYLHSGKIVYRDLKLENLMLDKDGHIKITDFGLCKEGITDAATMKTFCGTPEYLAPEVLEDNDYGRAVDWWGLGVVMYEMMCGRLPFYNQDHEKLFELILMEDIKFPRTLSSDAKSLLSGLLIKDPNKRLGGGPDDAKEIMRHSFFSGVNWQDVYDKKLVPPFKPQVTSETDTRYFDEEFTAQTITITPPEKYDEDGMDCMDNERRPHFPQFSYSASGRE
SMILES,inhibition [1],inhibition [2],inhibition [3],inhibition [4],inhibition [5],inhibition [6],inhibition [7],inhibition [8],inhibition [9],inhibition [10]
CN(C1CC1)S(=O)(=O)c1ccc(-c2cnc(N)c(-c3ccc4c(c3)CCNC4=O)c2)c(F)c1,0%,0%,0%,0%,50%,0%,,,,
Nc1ncc(-c2cccc3ncsc23)cc1-c1ccc2c(c1)CCNC2=O,0%,0%,50%,50%,< 90%,0%,,,,
Nc1ncc(-c2cccc([N+](=O)[O-])c2F)cc1-c1ccc2c(c1)CCNC2=O,0%,,,,,,,,,
Nc1ncc(-c2ccc(NS(=O)(=O)C3CC3)cc2OC2CCCCC2)cc1-c1ccc2c(c1)CCNC2=O,,,0%,0%,50%,0%,> 90%,0%,0%,0%

# More lines, now with the values ahead:
inhibition [1],inhibition [2],inhibition [3],inhibition [4],inhibition [5],inhibition [6],inhibition [7],inhibition [8],inhibition [9],inhibition [10],SMILES
,0%,,0%,,0%,75%,0%,0%,0%,COc1cc(NS(=O)(=O)C2CC2)ccc1-c1cnc(N)c(-c2ccc3c(c2)CCNC3=O)c1
,,0%,0%,,0%,0%,0%,0%,0%,Nc1ncc(-c2ccc(NS(=O)(=O)C3CC3)cc2F)cc1-c1ccc2c(c1)CCNC2=O

# From ChEMBL document CHEMBL4804281, “STK4 inhibitors for treatment of hematologic malignancies” (2020)
